Assay results: patent US6796312B2, “Process and apparatus for the removal of toxic components of tobacco smoke and the standardization of the health hazards related to those components” (priority 2001, dated 2004)
Where “and” joins values, the source holds several entries; their conditions need not be identical. Equal values may be shown once. Read-outs that look alike come from different tables or passages of the source.

What was measured:
human whole saliva = details: low concentrations; cited from earlier work
jack bean urease = jack bean urease (Canavalia ensiformis, UniProt P07374); details: cited from earlier work
Chain of jack bean urease (P07374 whole entry, looked up): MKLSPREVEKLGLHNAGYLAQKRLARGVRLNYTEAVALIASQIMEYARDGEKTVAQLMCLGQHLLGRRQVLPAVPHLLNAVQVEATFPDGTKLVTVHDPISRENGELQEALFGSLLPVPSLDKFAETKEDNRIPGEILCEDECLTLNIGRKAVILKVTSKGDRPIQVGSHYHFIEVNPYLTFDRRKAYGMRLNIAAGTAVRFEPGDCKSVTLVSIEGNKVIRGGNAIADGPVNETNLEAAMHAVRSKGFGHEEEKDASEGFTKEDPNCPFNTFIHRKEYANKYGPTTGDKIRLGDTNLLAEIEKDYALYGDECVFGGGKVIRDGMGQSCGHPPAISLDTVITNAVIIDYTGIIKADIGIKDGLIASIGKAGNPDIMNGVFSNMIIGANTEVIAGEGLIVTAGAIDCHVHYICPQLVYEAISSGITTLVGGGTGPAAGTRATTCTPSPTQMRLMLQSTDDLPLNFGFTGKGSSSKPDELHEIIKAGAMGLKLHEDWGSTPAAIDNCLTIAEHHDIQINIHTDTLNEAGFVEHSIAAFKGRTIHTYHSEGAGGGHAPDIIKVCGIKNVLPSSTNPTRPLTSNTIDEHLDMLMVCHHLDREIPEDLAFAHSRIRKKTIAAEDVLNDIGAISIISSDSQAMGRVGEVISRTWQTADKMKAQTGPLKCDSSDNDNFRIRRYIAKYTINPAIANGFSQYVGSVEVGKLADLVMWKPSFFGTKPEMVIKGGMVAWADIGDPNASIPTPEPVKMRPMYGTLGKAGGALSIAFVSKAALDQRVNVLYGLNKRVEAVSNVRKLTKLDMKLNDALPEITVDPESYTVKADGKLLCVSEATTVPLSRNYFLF

caries = details: hamsters in vivo; cited from earlier work
rat liver cyclophorase = details: 2.7×10^−3 Molar (160 ppm); listed as nordihydroguaiaretic acid; cited from earlier work
turnip peroxidase = details: 2.7×10^−4 Molar (80 ppm); cited from earlier work
[1] = cited from earlier work
[2] = test system: succinic oxidase and reduced nicotinamide-adenine dinucleotide oxidase; assay: Respiratory chain of mouse heart homogenates; format: biochemical; details: under certain conditions, Eichel unpublished
myeloperoxidase = target: T1, myeloperoxidase (Homo sapiens, UniProt P05164); assay: NADH2-NDGA-myeloperoxidase spectrophotometric assay of sputum / oral fluid-cell harvest supernatant extracts; format: biochemical
T1 construct: Homogenates were centrifuged at 1,300×g for ten (10) minutes and the supernatant extracts were kept during the course of analysis; from tissue; host or cells: human sputum / oral fluid-cell harvest (neutrophil-rich) homogenate supernatants
T1 sequence (P05164 49-745): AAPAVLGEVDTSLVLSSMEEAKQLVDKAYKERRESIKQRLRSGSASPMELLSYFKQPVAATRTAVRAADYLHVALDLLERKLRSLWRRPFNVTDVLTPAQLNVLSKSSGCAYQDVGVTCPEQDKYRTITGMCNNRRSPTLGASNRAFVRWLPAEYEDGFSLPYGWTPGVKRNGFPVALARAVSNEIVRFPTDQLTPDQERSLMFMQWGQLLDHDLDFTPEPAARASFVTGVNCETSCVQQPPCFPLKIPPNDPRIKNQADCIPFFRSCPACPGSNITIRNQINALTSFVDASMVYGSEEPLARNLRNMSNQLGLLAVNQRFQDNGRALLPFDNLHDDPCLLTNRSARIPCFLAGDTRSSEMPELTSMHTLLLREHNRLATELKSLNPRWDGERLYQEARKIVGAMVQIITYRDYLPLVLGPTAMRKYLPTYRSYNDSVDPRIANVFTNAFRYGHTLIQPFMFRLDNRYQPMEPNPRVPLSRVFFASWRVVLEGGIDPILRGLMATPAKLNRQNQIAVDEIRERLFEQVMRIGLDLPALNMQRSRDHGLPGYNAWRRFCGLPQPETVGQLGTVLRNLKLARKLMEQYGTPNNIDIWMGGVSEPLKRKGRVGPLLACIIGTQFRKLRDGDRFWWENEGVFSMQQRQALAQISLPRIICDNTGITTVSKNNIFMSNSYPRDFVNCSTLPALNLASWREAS
Experimental: Aliquots of fresh human oral fluid-cell harvests as exemplified above or fresh human sputum collected by the donors over a twenty-four (24) hour period were disrupted employing either Ten Broeck glass homogenizers or the Virtis homogenizer. Homogenates were centrifuged at 1,300×g for ten (10) minutes and the supernatant extracts were kept during the course of analysis at zero degrees centigrade (0° C.). Other reactants were incubated at thirty-five degrees centigrade (35° C.). Reduced nicotinamide-adenine dinucleotide oxidase and norhydroguaiaretic acid-myeloperoxidase activities were followed at 340 mμ or (nm) employing the Beckman Model DU Spectrophotometer temperature regulated at thirty-five degrees centigrade (35° C.). All specific reactions were run as duplicate assays.
Although this oxidation was very small under the conditions of experiment, an interaction correction factor was determined and applied to all reduced nicotinamide-adenine dinucleotide-nordihydroguaiaretic acid-mycloperoxidase assay reactions.
The velocity constants for the myeloperoxidase reactions behaved and were computed in accord with zero order reaction kinetics. […] In most instances, the activities followed first order reaction kinetics for a short interval and then ceased abruptly. The latter may be due to the presence or accumulation of variable concentrations of an unidentified inhibitor or inhibitors in the supernatants. Since in all cases the oxidase activities were very slow relative to the myeloperoxidase activities, the difference in optical density over the course of the reactions (up to ten (10) minutes) for the oxidase system were computed in the same manner as the data for the rapid myeloperoxidase system. Thus, all velocity constants were expressed in μ Moles of reduced nicotinamide-adenine dinucleotide oxidized per minute per ml. of oral fluid-cell harvest or sputum. The small oxidase activities were applied as a correction factor in the computation of all myeloperoxidase velocity constants.
The pH optimum of the myeloperoxidase system was determined. When fresh nordihydroguaiaretic acid solutions were prepared and interaction rates with reduced nicotinamide-adenine dinucleotide were subtracted as controls from oral lavage and sputum supernatant myeloperoxidase activities, the net velocity constants were zero (0). On the other hand, five (5) hour old nordihydroguaiaretic acid solutions yielded optimal activities at approximately pH 7.4. Subsequent experiments uniformly were carried out at pH 7.0 using five (5) hour old solutions to minimize the rates of the auto oxidation of nordihydroguaiaretic acid and oxidation of reduced nicotinamide-adenine dinucleotide by nordihydroguaiaretic acid when employing alkaline pH's.

[3] = target: squash ascorbic acid oxidase (Cucurbita pepo var. melopepo, UniProt P37064); details: cited from earlier work
Chain of squash ascorbic acid oxidase (P37064 whole entry): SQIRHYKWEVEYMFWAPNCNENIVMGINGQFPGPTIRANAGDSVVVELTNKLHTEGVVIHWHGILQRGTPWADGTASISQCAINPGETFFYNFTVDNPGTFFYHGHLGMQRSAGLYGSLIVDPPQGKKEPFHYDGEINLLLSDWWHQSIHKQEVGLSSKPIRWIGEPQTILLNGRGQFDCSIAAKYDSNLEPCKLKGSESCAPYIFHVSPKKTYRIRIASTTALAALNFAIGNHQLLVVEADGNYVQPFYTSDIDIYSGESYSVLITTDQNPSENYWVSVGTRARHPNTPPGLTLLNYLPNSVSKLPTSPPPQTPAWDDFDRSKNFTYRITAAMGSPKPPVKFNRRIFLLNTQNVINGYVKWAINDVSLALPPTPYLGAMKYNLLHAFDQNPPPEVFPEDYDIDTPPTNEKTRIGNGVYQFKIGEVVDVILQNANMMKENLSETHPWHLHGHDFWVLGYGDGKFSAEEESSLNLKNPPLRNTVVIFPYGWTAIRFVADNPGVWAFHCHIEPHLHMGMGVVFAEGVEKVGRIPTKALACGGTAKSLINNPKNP

[4] = target: T2, pig heart D-amino acid oxidase (Sus scrofa, UniProt P00371); details: 2.7×10^−3 Molar (160 ppm); cited from earlier work
T2 construct: host or cells: pig heart (so in the source)
T2 sequence (P00371 whole entry): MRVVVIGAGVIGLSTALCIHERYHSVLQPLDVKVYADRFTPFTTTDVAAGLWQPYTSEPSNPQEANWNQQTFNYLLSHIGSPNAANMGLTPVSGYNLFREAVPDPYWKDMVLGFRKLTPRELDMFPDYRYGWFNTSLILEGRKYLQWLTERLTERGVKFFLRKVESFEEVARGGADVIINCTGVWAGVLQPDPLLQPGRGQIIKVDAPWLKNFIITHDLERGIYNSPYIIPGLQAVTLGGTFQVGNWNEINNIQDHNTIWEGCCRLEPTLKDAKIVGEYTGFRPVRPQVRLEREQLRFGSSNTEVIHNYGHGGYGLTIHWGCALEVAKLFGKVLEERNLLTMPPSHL

[5] = target: T3, yeast alcohol dehydrogenase (Saccharomyces cerevisiae, UniProt P00330); details: 2.7×10^−4 Molar (80 ppm); cited from earlier work
T3 sequence (P00330 1-348): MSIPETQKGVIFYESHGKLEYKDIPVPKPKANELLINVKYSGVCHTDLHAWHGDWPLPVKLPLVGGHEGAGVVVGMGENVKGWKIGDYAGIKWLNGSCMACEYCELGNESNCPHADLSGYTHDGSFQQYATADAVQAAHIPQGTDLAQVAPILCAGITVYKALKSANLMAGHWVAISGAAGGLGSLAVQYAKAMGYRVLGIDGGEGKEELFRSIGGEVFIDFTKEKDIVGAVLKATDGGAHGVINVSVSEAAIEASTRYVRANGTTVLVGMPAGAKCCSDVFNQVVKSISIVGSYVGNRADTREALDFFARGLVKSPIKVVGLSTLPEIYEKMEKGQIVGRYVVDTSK

CC(Cc1ccc(O)c(O)c1)C(C)Cc1ccc(O)c(O)c1 (stereo not drawn) [NDGA, beta, gamma-dimethyl-alpha, ortho-bis (3,4 dihydroxiphenyl) butane]
inhibition of aerobic and anaerobic glycolysis (human whole saliva): markedly inhibited | inhibition of endogenous and glucose dependent respiration (human whole saliva): nearly as effectively inhibited | inhibition of jack bean urease (jack bean urease): 99% | anti-caries effect (caries): effective experimental anti-caries agent | inhibition of rat liver cyclophorase (rat liver cyclophorase): 93% and 70% | inhibition of turnip peroxidase (turnip peroxidase): 71% | solubility ([1]; dilute hydrochloric acid): insoluble | solubility ([1]; ethanol, methanol, ether, acetone, glycerol, propylene glycol, dilute alkali): soluble | solubility ([1]; hot water and chloroform): slightly soluble | inhibition of the respiratory chain (succinic oxidase, reduced nicotinamide-adenine dinucleotide oxidase) [2]: effective inhibitor | NADH2-NDGA-MPO velocity constant (myeloperoxidase; NDGA solution aged 0 minutes): 0.00 μ Moles NADH2 oxidized per minute per ml. of sputum supernatant | NADH2-NDGA-MPO velocity constant (myeloperoxidase; NDGA solution aged 60 minutes): 8.97 μ Moles NADH2 oxidized per minute per ml. of sputum supernatant | NADH2-NDGA-MPO velocity constant (myeloperoxidase; NDGA solution aged 120 minutes): 14.43 μ Moles NADH2 oxidized per minute per ml. of sputum supernatant | NADH2-NDGA-MPO velocity constant (myeloperoxidase; NDGA solution aged 180 minutes): 27.65 μ Moles NADH2 oxidized per minute per ml. of sputum supernatant | NADH2-NDGA-MPO velocity constant (myeloperoxidase; NDGA solution aged 240 minutes): 28.89 μ Moles NADH2 oxidized per minute per ml. of sputum supernatant | NADH2-NDGA-MPO velocity constant (myeloperoxidase; NDGA solution aged 337 minutes): 32.40 μ Moles NADH2 oxidized per minute per ml. of sputum supernatant | NADH2-NDGA-MPO velocity constant (myeloperoxidase; NDGA solution aged 397 minutes): 41.39 μ Moles NADH2 oxidized per minute per ml. of sputum supernatant | NADH2-NDGA-MPO velocity constant (myeloperoxidase; NDGA solution aged 440 minutes): 44.21 μ Moles NADH2 oxidized per minute per ml. of sputum supernatant | NADH2-NDGA-MPO velocity constant (myeloperoxidase; NDGA solution aged 485 minutes): 46.85 μ Moles NADH2 oxidized per minute per ml. of sputum supernatant | inhibition of squash ascorbic acid oxidase [3]: 100% | inhibition of pig heart D-amino acid oxidase [4]: 99% | inhibition of yeast alcohol dehydrogenase [5]: 71%
